Assay results reported in patent US20230118688A1, “1H-PYRAZOLO[4,3-d]PYRIMIDINE COMPOUNDS AS TOLL-LIKE RECEPTOR 7 (TLR7) AGONISTS” (BRISTOL-MYERS SQUIBB COMPANY, priority 2020, published 2023).
Like-named read-outs stand apart in the source and are kept apart here.

Experiments:
human TLR7 = molecular target: T1, human TLR7 (Homo sapiens, UniProt Q9NYK1); experiment: Human TLR7 agonist activity reporter assay (HEK-Blue TLR7 cells, SEAP reporter); assay type: cell-based; settings: 18 h treatment
T1 construct: host or cells: HEK-Blue TLR7 cells (engineered human embryonic kidney cells)
T1 sequence (Q9NYK1 27-1049): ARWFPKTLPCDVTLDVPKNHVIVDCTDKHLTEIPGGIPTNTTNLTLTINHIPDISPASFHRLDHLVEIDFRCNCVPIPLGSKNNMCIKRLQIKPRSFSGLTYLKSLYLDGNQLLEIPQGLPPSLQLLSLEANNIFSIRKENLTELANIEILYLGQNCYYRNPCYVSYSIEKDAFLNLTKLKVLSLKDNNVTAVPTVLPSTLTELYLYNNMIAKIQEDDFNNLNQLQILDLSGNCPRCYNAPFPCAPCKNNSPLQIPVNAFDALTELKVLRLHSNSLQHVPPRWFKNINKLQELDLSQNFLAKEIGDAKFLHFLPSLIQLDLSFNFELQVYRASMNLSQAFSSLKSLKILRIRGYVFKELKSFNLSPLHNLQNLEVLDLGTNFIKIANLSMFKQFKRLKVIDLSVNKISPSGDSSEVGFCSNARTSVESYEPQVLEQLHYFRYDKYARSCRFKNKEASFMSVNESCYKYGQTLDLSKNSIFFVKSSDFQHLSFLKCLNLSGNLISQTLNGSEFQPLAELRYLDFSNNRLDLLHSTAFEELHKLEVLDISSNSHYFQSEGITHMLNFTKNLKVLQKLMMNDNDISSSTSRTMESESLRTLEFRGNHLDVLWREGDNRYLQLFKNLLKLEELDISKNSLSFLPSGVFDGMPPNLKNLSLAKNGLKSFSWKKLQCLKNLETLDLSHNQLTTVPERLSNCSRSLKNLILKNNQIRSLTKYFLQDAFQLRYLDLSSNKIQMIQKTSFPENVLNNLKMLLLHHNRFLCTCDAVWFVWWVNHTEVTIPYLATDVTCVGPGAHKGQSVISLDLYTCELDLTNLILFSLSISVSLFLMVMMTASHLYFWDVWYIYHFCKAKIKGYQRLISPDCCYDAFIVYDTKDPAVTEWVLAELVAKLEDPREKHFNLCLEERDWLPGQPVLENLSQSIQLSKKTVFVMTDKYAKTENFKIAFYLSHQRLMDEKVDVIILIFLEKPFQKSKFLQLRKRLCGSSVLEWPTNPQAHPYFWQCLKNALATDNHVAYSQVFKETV
In short: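 HEK-Blue TLR7 cells (15,000/well) treated with compound for 18 h at 37 °C, 5% CO2. Secreted SEAP measured with Quanti-Blue, 30 min, OD 620 nm. EC50 taken as concentration giving half-maximal response between baseline and maximum.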

CD69 = experiment: Induction of CD69 in human whole blood; assay type: cell-based; settings: 17 h, CD69 surface staining, 100% set to 1 uM resiquimod
In short: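 Heparinized human whole blood, RPMI-diluted, incubated with TLR7 agonist (final 1 uM from 1 mM stock) for 17 h at 37 °C. CD69-PE surface staining with CD14/CD19 gating, fix/lysis, then flow cytometry; curves normalized with 1 uM resiquimod as 100%.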

[1] = Table A2, read-out: hTLR7 Agonism EC50
[2] = Table A2, read-out: hWB CD69 EC50
[3] = average where assay repeated, Table A1, read-out: hTLR7 Agonism EC50
[4] = average where assay repeated, Table A1, read-out: hWB CD69 EC50

Molecule	EC50 (human TLR7; [1])	EC50 (CD69; [2])	EC50 (human TLR7; [3])	EC50 (CD69; [4])
CCC[C@@H](CCO)Nc1nc(N)nc2cnn(Cc3cc(CN4C[C@H]5C[C@@H]4CN5C)c(F)cc3OC)c12 [Compound 171, (3S)-3-({5-amino-1-[(4-fluoro-2-methoxy-5-{[(1R,4R)-5-methyl-2,5-diazabicyclo[2.2.1]heptan-2-yl]methyl}phenyl)methyl]-1H-pyrazolo[4,3-d]pyrimidin-7-yl}amino)hexan-1-ol]	437 nM	140 nM	–	–
CCC[C@@H](CCO)Nc1nc(N)nc2cnn(Cc3cc(CN4C[C@H]5C[C@@H]4CN5CCO)c(F)cc3OC)c12 [Compound 175, (3S)-3-({5-amino-1-[(4-fluoro-5-{[(1R,4R)-5-(2-hydroxyethyl)-2,5-diazabicyclo[2.2.1]heptan-2-yl]methyl}-2-methoxyphenyl)-methyl]-1H-pyrazolo[4,3-d]pyrimidin-7-yl}amino)hexan-1-ol]	204 nM	77 nM	–	–
CCC[C@@H](CCO)Nc1nc(N)nc2cnn(Cc3cc(CN4CCN(C)CC4)ncc3OC)c12 [Compound 177, (3S)-3-{[5-amino-1-({5-methoxy-2-[(4-methylpiperazin-1-yl)methyl]-pyridin-4-yl}methyl)-1H-pyrazolo[4,3-d]pyrimidin-7-yl]amino}hexan-1-ol]	750 nM	34.5 nM	–	–
CCC[C@@H](CCO)Nc1nc(N)nc2cnn(Cc3cc(CNC)ncc3OC)c12 [Compound 178, (3S)-3-{[5-amino-1-({5-methoxy-2-[(methylamino)methyl]pyridin-4-yl}methyl)-1H-pyrazolo[4,3-d]pyrimidin-7-yl]amino}hexan-1-ol]	617 nM	33.9 nM	–	–
N7-butyl-1-[(2-methoxy-5- {[(1S,4S)-5-methyl-2,5- diazabicyclo[2.2.1]heptan-2- yl]methyl}phenyl)methyl]- 1H-pyrazolo[4,3-d] pyrimidine-5,7-diamine [Compound 142]	–	–	94.2 nM	29.5 nM
N7-butyl-1-{[2-methoxy-5- ({octahydropyrrolo[3,4-c]- pyrrol-2-yl}methyl)phenyl]- methyl}-1H-pyrazolo[4,3- d]pyrimidine-5,7-diamine [Compound 135]	–	–	448 nM	325 nM

Further lines, results first:

EC50 (human TLR7; [1])	EC50 (CD69; [2])	EC50 (human TLR7; [3])	EC50 (CD69; [4])	Molecule
167 nM	29.8 nM	–	–	CCC[C@@H](CCO)Nc1nc(N)nc2cnn(Cc3cc(CNCCO)c(F)cc3OC)c12 [Compound 172, (3S)-3-({5-amino-1-[(4-fluoro-5-{[(2-hydroxyethyl)amino]methyl}-2-methoxyphenyl)methyl]-1H-pyrazolo[4,3-d]pyrimidin-7-yl}amino)hexan-1-ol]
40 nM	23.2 nM	–	–	CCC[C@@H](CCO)Nc1nc(N)nc2cnn(Cc3cc(CNCCS(C)(=O)=O)c(F)cc3OC)c12 [Compound 173, (3S)-3-({5-amino-1-[(4-fluoro-5-{[(2-methanesulfonylethyl)amino]methyl}-2-methoxyphenyl)methyl]-1H-pyrazolo[4,3-d]pyrimidin-7-yl}amino)hexan-1-ol]
96.1 nM	41.4 nM	–	–	CCC[C@@H](CCO)Nc1nc(N)nc2cnn(Cc3nc(CO)ccc3OC)c12 [Compound 174, (3S)-3-[(5-amino-1-{[6-(hydroxyl-methyl)-3-methoxypyridin-2-yl]methyl}-1H-pyrazolo[4,3-d]pyrimidin-7-yl)amino]hexan-1-ol]
57.2 nM	5.7 nM	–	–	CCC[C@@H](CCO)Nc1nc(N)nc2cnn(Cc3cc(CN4CC[C@H](O)C4)c(F)cc3OC)c12 [Compound 176, (3S)-1-({5-[(5-amino-7-{[(3S)-1-hydroxyhexan-3-yl]amino}-1H-pyrazolo[4,3-d]pyrimidin-1-yl)methyl]-2-fluoro-4-methoxyphenyl}methyl) pyrrolidin-3-ol]
